Key:
[1] = tested on: TGF-β signalling (PAI-1 promoter-luciferase in HepG2 cells); test: Cellular transcriptional assay (PAI-1 promoter luciferase reporter); format: cell-based; conditions: Homo sapiens, PAI-1 promoter firefly luciferase, rhTGFβ-1 1 ng/mL
Procedure: Assay 1 (Cellular Transcriptional Assay)
These plates were placed in a cell incubator.
Columns 11 and 12 were employed as controls.

[2] = target: T1, recombinant GST-ALK5 (residues 198-503) (Homo sapiens, UniProt P36897); test: Alk5 fluorescence polarization assay; format: binding; conditions: rhodamine green-labelled ligand 1 nM, ALK5 10 nM, read-out: ALK5 receptor modulator activity (IC50)
T1 construct: assays using recombinant GST-ALK5 (residues 198-503)
T1 sequence (P36897 198-503): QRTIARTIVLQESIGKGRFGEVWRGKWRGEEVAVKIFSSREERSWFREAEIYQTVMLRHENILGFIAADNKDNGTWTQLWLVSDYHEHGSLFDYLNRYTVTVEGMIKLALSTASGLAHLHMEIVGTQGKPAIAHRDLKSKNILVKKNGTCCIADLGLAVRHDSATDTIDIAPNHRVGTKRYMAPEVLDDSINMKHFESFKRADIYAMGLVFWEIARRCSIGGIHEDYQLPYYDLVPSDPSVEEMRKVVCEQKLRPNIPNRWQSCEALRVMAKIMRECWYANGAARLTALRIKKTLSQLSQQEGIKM
Procedure: Assay 2 (Alk5 Fluorescence Polarization Assay)
Kinase inhibitor compounds conjugated to fluorophores, can be used as fluorescent ligands to monitor ATP competitive binding of other compounds to a given kinase. The increase in depolarization of plane polarized light, caused by release of the bound ligand into solution, is measured as a polarization/anisotropy value. This protocol details the use of a rhodamine green-labelled ligand for assays using recombinant GST-ALK5 (residues 198-503).
Assay buffer components: 62.5 mM Hepes pH 7.5 (Sigma H-4034), 1 mM DTT (Sigma D-0632), 12.5 mM MgCl2 (Sigma M-9272), 1.25 mM CHAPS (Sigma C-3023). […]
ALK5 was added to assay buffer containing the above components and 1 nM of the rhodamine green-labelled ligand so that the final ALK5 concentration was 10 nM based on active site titration of the enzyme. […] The plates were read immediately on a LJL Acquest fluorescence reader (Molecular Devices, serial number AQ1048) with excitation, emission, and dichroic filters of 485 nm, 530 nm, and 505 nm, respectively. The fluorescence polarization for each well was calculated by the Acquest reader and then imported into curve fitting software for construction of concentration response curves. The normalized response was determined relative to the high controls (1 μl DMSO in column 12, rows A-D) and the low controls (1 μl of control compound in column 12, rows E-H). […]

SMILES	melting point	IC50 [1]	IC50 [2]
Cc1cccc(-c2nc3c(C)cccn3c2-c2ccnc(-c3ccc(CN4CCOCC4)cc3)c2)n1 [Example 24, 8-Methyl-2-(6-methyl-pyridin-2-yl)-3-{2-[4-((morpholin-4-yl)methyl)phenyl]-pyridin-4-yl}-imidazo[1,2-a]pyridine]	122 °C		
Cc1ccn2c(-c3ccnc(-c4ccc(OCCN5CCCC5)cc4)c3)c(-c3cccc(C)n3)nc2c1 [Example 38, 7-Methyl-2-(6-methyl-pyridin-2-yl)-3-{2-[4-(2-(pyrrolidin-1-yl)ethoxy)phenyl]-pyridin-4-yl}-imidazo[1,2-a]pyridine]	163 °C	127 nM	15 nM
CC(=O)Nc1ccc(-c2cc(-c3c(-c4ccccn4)nc4ccccn34)ccn2)cc1 [Example 9, 3-[2-(4-(Methylcarbonylamino)phenyl)-pyridin-4-yl]-2-pyridin-2-yl-imidazo[1,2-a]pyridine]	133 °C		
Cc1cccc(-c2nc3ccccn3c2-c2ccnc(-c3ccc(C(=O)NC4CCOCC4)cc3)c2)n1 [Example 27, 3-[2-(4-((tetrahydropyran-4-yl)aminocarbonyl)phenyl)-pyridin-4-yl]-2-(6-methyl-pyridin-2-yl)-imidazo[1,2-a]pyridine]	128 °C		
Cc1cccc(-c2nc3ccccn3c2-c2ccnc(-c3ccc(OC(F)(F)F)cc3)c2)n1 [Example 3, 2-(6-methyl-pyridin-2-yl)-3-[2-(4-trifluoromethoxy-phenyl)-pyridin-4-yl]-imidazo[1,2-a]pyridine]	120 °C		
CS(=O)(=O)c1ccc(-c2cc(-c3c(-c4ccccn4)nc4ccccn34)ccn2)cc1 [Example 5, 3-[2-(4-Methanesulfonyl-phenyl)-pyridin-4-yl]-2-pyridin-2-yl-imidazo[1,2-a]pyridine]	242 to 244 °C		
Fc1ccc(-c2nc3ccccn3c2-c2ccnc(-c3ccc(CN4CCCC4)cc3)c2)cc1F [Example 19, 2-(3,4-Difluoro-phenyl)-3-[2-(4-(pyrrolidin-1-yl-methyl)phenyl)-pyridin-4-yl]-imidazo[1,2-a]pyridine]	155 °C		
CC(=O)Nc1ccc(-c2cc(-c3c(-c4cccc(C)n4)nc4ccccn34)ccn2)cc1 [Example 10, 3-[2-(4-(methylcarbonylamino)phenyl)-pyridin-4-yl]-2-(6-methyl-pyridin-2-yl)-imidazo[1,2-a]pyridine]	257 °C		
O=C(c1ccc(-c2cc(-c3c(-c4cccc(F)n4)nc4ccccn34)ccn2)cc1)N1CCOCC1 [Example 33, 2-(6-Fluoro-pyridin-2-yl)-3-{2-[4-((morpholiny-4-yl)carbonyl)phenyl]-pyridin-4-yl}-imidazo[1,2-a]pyridine]	191 °C		
COc1ccc(-c2cc(-c3c(-c4cccc(C)n4)nc4ccccn34)ccn2)cc1 [Example 2, 3-[2-(4-methoxy-phenyl)-pyridin-4-yl]-2-(6-methyl-pyridin-2-yl)-imidazo[1,2-a]pyridine]	174 °C		
O=C(NC1CCOCC1)c1ccc(-c2cc(-c3c(-c4ccccn4)nc4ccccn34)ccn2)cc1 [Example 26, 3-[2-(4-((Tetrahydropyran-4-yl)aminocarbonyl)phenyl)-pyridin-4-yl]-2-pyridin-2-yl-imidazo[1,2-a]pyridine]	179 °C		
c1ccc(-c2nc3ccccn3c2-c2ccnc(-c3ccc(CN4CCOCC4)cc3)c2)nc1 [Example 17, 3-[2-(4-(Morpholin-4-yl-methyl)-phenyl)-pyridin-4-yl]-2-pyridin-2-yl-imidazo[1,2-a]pyridine]	80 °C (dec.)		

Results, then the molecule that gave them:

melting point	IC50 [1]	IC50 [2]	SMILES
	125 nM	11 nM	Cc1cccc(-c2nc3ccccn3c2-c2ccnc(-c3ccc(S(C)(=O)=O)cc3)c2)n1 [Example 6, 3-[2-(4-Methanesulfonyl-phenyl)-pyridin-4-yl]-2-(6-methyl-pyridin-2-yl)-imidazo[1,2-a]pyridine]
205 °C			Fc1ccc(-c2nc3ccccn3c2-c2ccnc(-c3ccc(CN4CCOCC4)cc3)c2)cc1F [Example 20, 2-(3,4-Difluoro-phenyl)-3-[2-(4-(morpholin-1-yl-methyl)phenyl)-pyridin-4-yl]-imidazo[1,2-a]pyridine]
298 °C			Clc1cccc(-c2nc3ccccn3c2-c2ccnc(-c3ccc(OCCN4CCCC4)cc3)c2)c1 [Example 37, 2-(3-Chloro-phenyl)-3-{2-[4-(2-(pyrrolidin-1-yl)ethoxy)phenyl]-pyridin-4-yl}-imidazo[1,2-a]pyridine]
157 °C			Cc1cccc(-c2nc3ccc(Cl)cn3c2-c2ccnc(-c3ccc(CN4CCOCC4)cc3)c2)n1 [Example 21, 6-Chloro-2-(6-methyl-pyridin-2-yl)-3-[2-(4-(morpholin-4-yl-methyl)phenyl)-pyridin-4-yl]-imidazo[1,2-a]pyridine]
214 °C			Cc1cccc(-c2nc3ccccn3c2-c2ccnc(-c3ccc(C#N)cc3)c2)n1 [Example 4]
189 °C			Fc1ccc(-c2nc3ccccn3c2-c2ccnc(-c3ccc(CN4CCOCC4)cc3)c2)cc1Cl [Example 18, 2-(3-Chloro-4-fluoro-phenyl)-3-[2-(4-(morpholin-4-yl-methyl)phenyl)-pyridin-4-yl]-imidazo[1,2-a]pyridine]
188 °C			Cc1ccn2c(-c3ccnc(-c4ccc(CN5CCOCC5)cc4)c3)c(-c3cccc(C)n3)nc2c1 [Example 22, 7-Methyl-2-(6-methyl-pyridin-2-yl)-3-[2-(4-(morpholin-4-yl-methyl)phenyl)-pyridin-4-yl]-imidazo[1,2-a]pyridine]
212 °C			CCN1CCN(C(=O)c2ccc(-c3cc(-c4c(-c5cccc(C)n5)nc5c(C)cccn45)ccn3)cc2)CC1 [Example 32, 8-Methyl-2-(6-methyl-pyridin-2-yl)-3-{2-[4-((1-ethyl-piperazin-4-yl)carbonyl)phenyl]-pyridin-4-yl}-imidazo[1,2-a]pyridine]
214 °C			CC(=O)c1ccc(-c2cc(-c3c(-c4ccccn4)nc4ccccn34)ccn2)cc1 [Example 8, 3-[2-(4-(Acetyl)phenyl)-pyridin-4-yl]-2-(pyridin-2-yl)-imidazo[1,2-a]pyridine]
134 °C			Cc1cccc(-c2nc3ccc(Cl)cn3c2-c2ccnc(-c3ccc(CN4CCCC4)cc3)c2)n1 [Example 23, 6-Chloro-2-(6-methyl-pyridin-2-yl)-3-[2-(4-(pyrrolidin-1-yl-methyl)phenyl)-pyridin-4-yl]-imidazo[1,2-a]pyridine]
60 °C			CS(=O)(=O)Nc1ccc(-c2cc(-c3c(-c4cccc(Cl)c4)nc4ccccn34)ccn2)cc1 [Example 11, 2-(3-chloro-phenyl)-3-[2-(4-(methanesulfonylamino)phenyl)-pyridin-4-yl]-imidazo[1,2-a]pyridine]
